Where two headings read alike, the source gives them in different places.
Key:
[1] = system: CYP6P9a/CYP6P9b (MALCYP6P9a, BENCYP6P9a, MALCYP6P9b, UGANCYP6P9b); assay: in vitro; type: biochemical, Anopheles funestus; settings: Anopheles funestus, pH 7.4, inhibition of DEF dealkylation, DDT value for all proteins excepting UGANCYP6P9b
Protocol: To further assess differences in the degree of binding of the various recombinant proteins to insecticides from different classes, inhibition assay was conducted with DEF and ten insecticides (inhibitors). The potent P450s inhibitor miconazole was utilised as a positive control inhibitor. IC50 determination was conducted as described in previous studies. […]. The 96 well-plate was pre-incubated for 5 minutes at 37°C and then 25μl regeneration buffer (7.8mg glucose-6-phosphate (G6P), 0.25mM MgCl2, 1.7mg NADP, 6U/ml glucose-6-phosphate dehydrogenase and 2% w/v NaHCO3) incorporated. Fluorescence was monitored for 21 cycles at interval of 1 minute with shaking at every step. Results were analysed using Magellan v6.2 software and inhibition at each inhibitor concentration and incubation time calculated as residual control activity towards DEF.

[2] = system: CYP6Z2; settings: cited from earlier work
[3] = system: CYP6Z8; design: method as in ref [8] (S1 Text); settings: cited from earlier work; for Kcat: Ae. aegypti CYP6Z8 ref [8] (S1 Text)
[4] = target: T1, FANGCYP6P9a (Anopheles funestus, UniProt K7Z0P3); assay: Pyrethroid depletion (metabolism) assay with recombinant enzyme; type: biochemical; settings: 20μM insecticide, 1 hour, vs -NADPH
Protocol: (§4) Membrane expressing recombinant CYP6P9a/-b and AgCPR, and reconstituted cytochrome b5 were added to the side of the tube and pre-incubated for 5 minutes at 30°C, with shaking at 1,200 rpm to activate the membrane. 20μM of test insecticide was then added into the final volume of 0.2ml (~2.5% v/v methanol), and reaction started by vortexing at 1,200 rpm and 30°C for 1 hour. Reactions were quenched with 0.1ml ice-cold methanol and incubated for 5 more minutes. Tubes were then centrifuged at 16,000 rpm and 4°C for 15 minutes, and 150μl of supernatant transferred into HPLC vials for analysis. Reactions were carried out in triplicates with experimental samples (+NADPH) and negative controls (-NADPH). 100μl of sample was loaded onto an isocratic mobile phase (90:10 v/v methanol to water) with a flow rate of 1ml/min, monitoring wavelength of 226nm and peaks separated with a 250mm C18 column (Acclaim 120, Dionex) on Agilent 1260 Infinity at 23°C. Enzyme activity was calculated as percentage depletion (the difference in the amount of insecticide(s) remaining in the +NADPH tubes compared with the–NADPH) and a t-test used for statistical analysis.

[5] = target: UGANCYP6P9a (Anopheles funestus, UniProt B5AII6); assay: as above; type: biochemical; settings: 20μM insecticide, 1 hour, vs -NADPH
Protocol: as §4

[6] = system: CYP6M2; design: method as in ref [5] (S1 Text); settings: An. gambiae CYP6M2 ref [5] (S1 Text); cited from earlier work
[7] = target: T2, MALCYP6P9b (Anopheles funestus, UniProt B5AII7); assay: Pyrethroid depletion (metabolism) assay with recombinant enzyme; type: biochemical; settings: 20μM insecticide, 1 hour, vs -NADPH
Protocol: as §4

[8] = target: T3, BENCYP6P9b (Anopheles funestus, UniProt A0A0S1S7Y0); assay: as above; type: biochemical; settings: 20μM insecticide, 1 hour, vs -NADPH
Protocol: (§5) To establish whether allelic variation in CYP6P9a and CYP6P9b impact their metabolic activities toward insecticides, pyrethroids were screened with the recombinant enzymes from these genes. […] Membrane expressing recombinant CYP6P9a/-b and AgCPR, and reconstituted cytochrome b5 were added to the side of the tube and pre-incubated for 5 minutes at 30°C, with shaking at 1,200 rpm to activate the membrane. 20μM of test insecticide was then added into the final volume of 0.2ml (~2.5% v/v methanol), and reaction started by vortexing at 1,200 rpm and 30°C for 1 hour. Reactions were quenched with 0.1ml ice-cold methanol and incubated for 5 more minutes. Tubes were then centrifuged at 16,000 rpm and 4°C for 15 minutes, and 150μl of supernatant transferred into HPLC vials for analysis. Reactions were carried out in triplicates with experimental samples (+NADPH) and negative controls (-NADPH). 100μl of sample was loaded onto an isocratic mobile phase (90:10 v/v methanol to water) with a flow rate of 1ml/min, monitoring wavelength of 226nm and peaks separated with a 250mm C18 column (Acclaim 120, Dionex) on Agilent 1260 Infinity at 23°C. Enzyme activity was calculated as percentage depletion (the difference in the amount of insecticide(s) remaining in the +NADPH tubes compared with the–NADPH) and a t-test used for statistical analysis.

[9] = target: T4, BENCYP6P9a (Anopheles funestus, UniProt A0A0S1RZ75); assay: as above; type: biochemical; settings: 20μM insecticide, 1 hour, vs -NADPH
[10] = target: T5, UGANCYP6P9b (Anopheles funestus, UniProt A0A0S1S7Y0); assay: as above; type: biochemical; settings: 20μM insecticide, 1 hour, vs -NADPH
[11] = target: T6, FANGCYP6P9b (Anopheles funestus, UniProt A0A0S1RZ61); assay: as above; type: biochemical; settings: 20μM insecticide, 1 hour, vs -NADPH
Protocol: as §5

[12] = target: T1, FANGCYP6P9a
Protocol: (§1) Reactions were performed in triplicates both for +NADPH (experimental tubes) and–NADPH (negative control). K m and V max were established from the plot of substrate concentrations against the initial velocities and fitting of the data to the Michaelis-Menten module using the least squares non-linear regression, as described in the GraphPad Prism 6.03 Software (GraphPad Inc., La Jolla, CA, USA).

[13] = target: T6, FANGCYP6P9b
Protocol: as §1

[14] = system: transgenic flies over-expressing FANGCYP6P9b; settings: 0.15% deltamethrin paper
Protocol: (§2) Primers used for this PCR are given in S8 Table. PCR conditions, cloning techniques, construction of transgenic flies and expression of candidate genes was conducted as described in previous studies, with more details provided in S1 Text. For control group, flies with the same background as the UAS transgenic lines but devoid of the UAS construct with the candidate gene were crossed with the driver Actin5C-GAL4 line to generate Actin5C-GAL4-null flies.
(§3) These papers were then rolled and introduced into 45 cc plastic vials. The vials were then plugged with cotton wool soaked in 5% sucrose. 20–25 (2–4 days old, post-eclosion F1 females) were selected for the bioassays and introduced into the vials. Mortality plus knockdown was scored after 1 hr, 2 hrs, 3 hrs, 6 hrs, 12 hrs and 24 hrs post-exposure to the discriminating dose of the insecticides.

[15] = system: transgenic flies over-expressing FANGCYP6P9a; settings: 0.15% deltamethrin paper, 3 hrs
Protocol: as §2, §3

[16] = system: transgenic flies over-expressing MALCYP6P9b; settings: 0.15% deltamethrin paper
Protocol: as §2, §3

[17] = system: transgenic flies over-expressing MALCYP6P9a; settings: 0.15% deltamethrin paper, 3 hrs
Protocol: as §2, §3

[18] = target: T4, BENCYP6P9a; assay: Steady-state kinetics of pyrethroid metabolism; type: biochemical
Protocol: as §1

[19] = target: T2, MALCYP6P9b; assay: Steady-state kinetics of pyrethroid metabolism; type: biochemical
Protocol: as §1

[20] = target: T3, BENCYP6P9b; assay: Steady-state kinetics of pyrethroid metabolism; type: biochemical
Protocol: as §1

[21] = target: T5, UGANCYP6P9b; assay: Steady-state kinetics of pyrethroid metabolism; type: biochemical
Protocol: as §1

[22] = target: MALCYP6P9a (Anopheles funestus, UniProt B5AII6); assay: Pyrethroid depletion (metabolism) assay with recombinant enzyme; type: biochemical; settings: 20μM insecticide, 1 hour, vs -NADPH
Protocol: as §4

Compound: CNC(=O)Oc1cccc2c1OC(C)(C)O2 [bendiocarb]
- IC50 [1]: > 25 µM

Compound: O=c1ccc2nc3ccc(OCc4ccccc4)cc3oc-2c1 [benzyloxyresorufin]
- Km ([2]; An. gambiae CYP6Z2-mediated de-benzylation ref [7] (S1 Text)): ~0.13 µM
- Kcat ([2]; An. gambiae CYP6Z2 ref [7] (S1 Text)): ~ 1.5 min^-1
- Kcat [3]: 0.00162 s⁻¹
- Km ([3]; Aedes aegypti CYP6Z8-mediated de-benzylation ref [8] (S1 Text)): ~0.13 µM

Compound: CC1(C)[C@H](C(=O)O[C@H](C#N)c2cccc(Oc3ccccc3)c2)[C@@H]1C=C(Br)Br [deltamethrin]
- Percentage depletion [4]: 18.11±2.15%
- Percentage depletion [5]: 57.9±2.74 %
- Km [6]: 2 µM
- Percentage depletion [7]: more than 80%
- Percentage depletion ([7]; listed as Deltamethrin): 81.69±2.27 %
- Percentage depletion [8]: 62.03±1.14 %
- Percentage depletion [9]: 59.54±5.11 %
- Percentage depletion [10]: 62.53±4.04 %
- Percentage depletion [11]: 6.2±1.5%
- Kcat [12]: 0.0812 ± 0.0343 s⁻¹
- Kcat [13]: 0.082 ± 0.0137 s⁻¹
- Km [13]: 19.5 ± 5.53 µM
- mortality ([14]; 1 hr): 20%
- mortality ([14]; 2 hrs): 53%
- mortality ([14]; 3 hrs): 62%
- mortality ([14]; 6 hrs): 70%
- mortality ([14]; 12 hrs): 81%
- mortality ([14]; 24 hrs): 93%
- mortality [15]: 52%
- mortality ([16]; 1 hr): 1.5%
- mortality ([16]; 2 hrs): 7.5%
- mortality ([16]; 3 hrs): 12.5%
- mortality ([16]; 6 hrs): 16%
- mortality ([16]; 12 hrs): 21%
- mortality ([16]; 24 hrs): 41%
- mortality [17]: < 30%
- Kcat [18]: 8.78±2.62^a min^-1
- Kcat [19]: 12.09±1.44^b min^-1
- Km [19]: 9.9 ± 1.65 µM
- Kcat [20]: 13.63±5.40^b min^-1
- Kcat [21]: 10.44±4.00^b min^-1
- Percentage depletion [22]: 68.38±1.83 %

Compound: CCOc1ccc2nc3ccc(=O)cc-3oc2c1 [ethoxyresorufin]
- Kcat [3]: 0.0198 s⁻¹

Compound: CCOc1ccc(C(C)(C)COCc2cccc(Oc3ccccc3)c2)cc1 [etofenprox]
- Percentage depletion [4]: 7.28±1.53%
- Percentage depletion [5]: 42.55±1.03 %
- Percentage depletion [7]: 71.59±1.42 %
- Percentage depletion [8]: 37.15±4.15 %
- Percentage depletion [9]: 41.22±1.54 %
- Percentage depletion [10]: 57.91±1.55 %
- Percentage depletion [11]: 16.88±3.06%
- Percentage depletion [22]: 46.04±1.26 %

Compound: CNC(=O)Oc1ccccc1OC(C)C [propoxur]
- IC50 [1]: > 25 µM

From PMC4627800, “Allelic Variation of Cytochrome P450s Drives Resistance to Bednet Insecticides in a Major Malaria Vector” (PLoS Genetics, 2015)
